Values of other authors as cited in PubChem BioAssay AID1259409 (Chemical Carcinogenesis Research Information System (CCRIS), 2018).

Tested on: rodent chemically induced tumor inhibition, incidence and multiplicity
Test: CCRIS tumor inhibitor studies
Details: Promoter: NONE; for outcome: Carcinogen: OCHRATOXIN A (303-47-9), Strain/Sex: LEWIS/FEMALE

In the case of O=S(=O)(O)CCS, the “tumour outcome (control, treated, inhibition, significance)” value (Carcinogen: 17BETA-ESTRADIOL, 50-28-2, Dose [Inhibitor]: 0, 0.05% IN DRINKING WATER 5 D/WK BEGINNING 5 D POST CARCINOGEN DOSE (STUDY DURATION: 7.5 MO), Route [Inhibitor]: ORAL, Species: HAMSTER, Strain/Sex: SYRIAN/MALE, Target Tissue: Type of Lesion: KIDNEY: TUMOR, Dose [Carcinogen]: 25 MG PELLET REPLACED WITH A SECOND PELLET AFTER 4 MO) is given as 13/13 (100%), 15/19 (79%), 21%, not calculated, the “tumour outcome (control, treated, inhibition, significance)” value (Carcinogen: CYCLOPHOSPHAMIDE, 50-18-0, Dose [Inhibitor]: 5 MG/KG BW IN DRINKING WATER 5/WK FOR 20 MO SIMULTANEOUSLY WITH CARCINOGEN TREATMENT (STUDY DURATION: 20 MO), Route [Inhibitor]: ORAL, Species: RAT, Strain/Sex: SPRAGUE-DAWLEY/MALE, Target Tissue: Type of Lesion: NERVOUS TISSUE: NEOPLASM, Dose [Carcinogen]: 2.5 MG/KG BW IN DRINKING WATER 5/WK FOR 20) is given as 14%, 19%, -36%, not calculated and the “tumour outcome (control, treated, inhibition, significance)” value (Carcinogen: CYCLOPHOSPHAMIDE, 50-18-0, Dose [Inhibitor]: 5 MG/KG BW IN DRINKING WATER 5/WK FOR 20 MO SIMULTANEOUSLY WITH CARCINOGEN TREATMENT (STUDY DURATION: 20 MO), Route [Inhibitor]: ORAL, Species: RAT, Strain/Sex: SPRAGUE-DAWLEY/MALE, Target Tissue: Type of Lesion: URINARY BLADDER: TUMOR, Dose [Carcinogen]: 2.5 MG/KG BW IN DRINKING WATER 5/WK FOR 20 MO) is given as 30%, 22%, 27%, p>0.003*. The “tumour outcome (control, treated, inhibition, significance)” value (Carcinogen: CYCLOPHOSPHAMIDE, 50-18-0, Dose [Inhibitor]: 5 MG/KG BW IN DRINKING WATER 5/WK FOR DURATION OF STUDY SIMULTANEOUSLY WITH CARCINOGEN TREATMENT (STUDY DURATION: LIFE), Route [Inhibitor]: ORAL, Species: RAT, Strain/Sex: SPRAGUE-DAWLEY/MALE, Target Tissue: Type of Lesion: URINARY BLADDER: PAPILLOMA, CARCINOMA, Dose [Carcinogen]: 2.5 MG/KG BW IN DRINKING WATER 5/WK FOR DURATION OF STUDY) was 32/100 (32%), 12/50 (24%), 25%, not calculated, the “tumour outcome (control, treated, inhibition, significance)” value (Carcinogen: CYCLOPHOSPHAMIDE, 50-18-0, Dose [Inhibitor]: 15 MG/KG BW IN DRINKING WATER 5/WK FOR 20 MO SIMULTANEOUSLY WITH CARCINOGEN TREATMENT (STUDY DURATION: 20 MO), Route [Inhibitor]: ORAL, Species: RAT, Strain/Sex: SPRAGUE-DAWLEY/MALE, Target Tissue: Type of Lesion: NERVOUS TISSUE: NEOPLASM, Dose [Carcinogen]: 2.5 MG/KG BW IN DRINKING WATER 5/WK FOR 20 MO) was 14%, 24%, -71%, not calculated and the “tumour outcome (control, treated, inhibition, significance)” value (Carcinogen: CYCLOPHOSPHAMIDE, 50-18-0, Dose [Inhibitor]: 15 MG/KG BW IN DRINKING WATER 5/WK FOR 20 MO SIMULTANEOUSLY WITH CARCINOGEN TREATMENT (STUDY DURATION: 20 MO), Route [Inhibitor]: ORAL, Species: RAT, Strain/Sex: SPRAGUE-DAWLEY/MALE, Target Tissue: Type of Lesion: URINARY BLADDER: TUMOR, Dose [Carcinogen]: 2.5 MG/KG BW IN DRINKING WATER 5/WK FOR 20 MO) was 30%, 7%, 77%, p>0.003*. For the same molecule, the “tumour outcome (control, treated, inhibition, significance)” value (Carcinogen: CYCLOPHOSPHAMIDE, 50-18-0, Dose [Inhibitor]: 15 MG/KG BW IN DRINKING WATER 5/WK FOR DURATION OF STUDY SIMULTANEOUSLY WITH CARCINOGEN TREATMENT (STUDY DURATION: LIFE), Route [Inhibitor]: ORAL, Species: RAT, Strain/Sex: SPRAGUE-DAWLEY/MALE, Target Tissue: Type of Lesion: URINARY BLADDER: PAPILLOMA, CARCINOMA, Dose [Carcinogen]: 2.5 MG/KG BW IN DRINKING WATER 5/WK FOR DURATION OF STUDY) was 32/100 (32%), 1/50 (2%), 94%, not calculated, the “tumour outcome (control, treated, inhibition, significance)” value (Carcinogen: N-BUTYL-N(4-HYDROXYBUTYL)NITROSAMINE (3817-11-6), Dose [Inhibitor]: 0.05% IN DRINKING WATER FOR 15 WK (STUDY DURATION: 15 WK), Route [Inhibitor]: ORAL, Species: RAT, Strain/Sex: WISTAR/MALE, Target Tissue: Type of Lesion: URINARY BLADDER: PAPILLOMA, Dose [Carcinogen]: 0.025% IN DRINKING WATER FOR 15 WK) was 38/40 (95%), 18/30 (60%), 37%, p< 0.01 and the “tumour outcome (control, treated, inhibition, significance)” value (Carcinogen: N-BUTYL-N(4-HYDROXYBUTYL)NITROSAMINE (3817-11-6), Dose [Inhibitor]: 0.05% IN DRINKING WATER FOR 15 WK (STUDY DURATION: 15 WK), Route [Inhibitor]: ORAL, Species: RAT, Strain/Sex: WISTAR/MALE, Target Tissue: Type of Lesion: URINARY BLADDER: TRANSITIONAL CELL CARCINOMA, Dose [Carcinogen]: 0.025% IN DRINKING WATER FOR 15 WK) was 4/40 (10%), 1/30 (3%), 70%, not significant. The “tumour outcome (control, treated, inhibition, significance)” value (Carcinogen: N-BUTYL-N-(4-HYDROXYBUTYL)NITROSAMINE, 3817-11-6, Dose [Inhibitor]: 350 MG/KG IN DRINKING WATER 5/WK FOR 39 WK SIMULTANEOUSLY WITH CARCINOGEN TREATMENT FOLLOWED BY OBSERVATION FOR LIFE (ST, Route [Inhibitor]: ORAL, Species: RAT, Strain/Sex: SPRAGUE-DAWLEY/MALE, Target Tissue: Type of Lesion: URINARY BLADDER: PAPILLOMATOUS CARCINOMA, TRANSITIONAL CELL CARCINOMA, Dose [Carcinogen]: 70 MG/KG 2/WK FOR 39 WK SIMULTANEOUSLY WITH AGENT TREATMENT) was 96%, 91%, 5%, not significant, the outcome (Dose [Inhibitor]: 1 G/L IN DRINKING WATER FOR LIFETIME (STUDY DURATION: LIFETIME), Route [Inhibitor]: GAVAGE, Species: RAT, Target Tissue: Type of Lesion: URINARY BLADDER: TRANSITIONAL CELL CARCINOMA, Dose [Carcinogen]: 0.4 MG/KG BW 3X/WK FOR LIFETIME) was 0/20 (0%), 0/20 (0%), 0%, not significant and the outcome (Dose [Inhibitor]: 1 G/L IN DRINKING WATER FOR LIFETIME (STUDY DURATION: LIFETIME), Route [Inhibitor]: GAVAGE, Species: RAT, Target Tissue: Type of Lesion: URINARY BLADDER: TRANSITIONAL CELL PAPILLOMA, Dose [Carcinogen]: 0.4 MG/KG BW 3X/WK FOR LIFETIME) was 0/20 (0%), 0/20 (0%), 0%, not significant. For the same molecule, the “tumour outcome (control, treated, inhibition, significance)” value (Carcinogen: OCHRATOXIN A, 303-47-9, Dose [Inhibitor]: 1 G/L IN DRINKING WATER FOR LIFETIME (STUDY DURATION: LIFETIME), Route [Inhibitor]: GAVAGE, Species: RAT, Strain/Sex: DA/FEMALE, Target Tissue: Type of Lesion: URINARY BLADDER: TRANSITIONAL CELL PAPILLOMA, Dose [Carcinogen]: 0.4 MG/KG BW 3X/WK FOR LIFETIME) was 2/40 (6%), 0/40 (0%), 100%, not significant and the “tumour outcome (control, treated, inhibition, significance)” value (Carcinogen: OCHRATOXIN A, 303-47-9, Dose [Inhibitor]: 1 G/L IN DRINKING WATER FOR LIFETIME (STUDY DURATION: LIFETIME), Route [Inhibitor]: GAVAGE, Species: RAT, Strain/Sex: DA/MALE, Target Tissue: Type of Lesion: URINARY BLADDER: TRANSITIONAL CELL CARCINOMA, Dose [Carcinogen]: 0.4 MG/KG BW 3X/WK FOR LIFETIME) was 2/20 (11%), 0/20 (0%), 100%, not significant.
